# Source: ChEMBL document CHEMBL1145579, “Development of potent and selective small-molecule human Urotensin-II antagonists” (Bioorg Med Chem Lett, 2008)
# Tests used:
# [1] = Oral bioavailability in rat at 4 mg/kg, po; assay type: ADME, organism-based; conditions: in vivo
# [2] = Half life in rat at 2 mg/kg, iv and 4 mg/kg, po; assay type: ADME, organism-based; conditions: in vivo
# [3] = biological target: T1, Urotensin-2 receptor (Homo sapiens, UniProt Q9UKP6); assay: Displacement of [125I]hU-2 from human recombinant Urotensin 2 receptor expressed in HEK293 cells; assay type: cell-based
# T1 sequence (Q9UKP6 whole entry): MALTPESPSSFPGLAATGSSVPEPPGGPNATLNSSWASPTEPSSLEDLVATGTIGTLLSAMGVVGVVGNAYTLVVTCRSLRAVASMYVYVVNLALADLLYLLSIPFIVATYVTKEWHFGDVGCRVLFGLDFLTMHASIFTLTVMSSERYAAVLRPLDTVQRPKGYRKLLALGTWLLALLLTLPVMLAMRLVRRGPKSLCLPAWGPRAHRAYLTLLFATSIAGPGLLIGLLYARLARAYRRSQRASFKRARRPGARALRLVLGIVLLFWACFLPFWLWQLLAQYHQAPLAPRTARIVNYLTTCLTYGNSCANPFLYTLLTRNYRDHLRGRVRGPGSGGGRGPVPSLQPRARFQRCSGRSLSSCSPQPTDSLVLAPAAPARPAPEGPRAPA
# [4] = biological target: Cytochrome P450 2D6 (Homo sapiens, UniProt P10635); assay: Inhibition of CYP2D6; assay type: ADME
# Cytochrome P450 2D6, sequence (P10635 whole entry): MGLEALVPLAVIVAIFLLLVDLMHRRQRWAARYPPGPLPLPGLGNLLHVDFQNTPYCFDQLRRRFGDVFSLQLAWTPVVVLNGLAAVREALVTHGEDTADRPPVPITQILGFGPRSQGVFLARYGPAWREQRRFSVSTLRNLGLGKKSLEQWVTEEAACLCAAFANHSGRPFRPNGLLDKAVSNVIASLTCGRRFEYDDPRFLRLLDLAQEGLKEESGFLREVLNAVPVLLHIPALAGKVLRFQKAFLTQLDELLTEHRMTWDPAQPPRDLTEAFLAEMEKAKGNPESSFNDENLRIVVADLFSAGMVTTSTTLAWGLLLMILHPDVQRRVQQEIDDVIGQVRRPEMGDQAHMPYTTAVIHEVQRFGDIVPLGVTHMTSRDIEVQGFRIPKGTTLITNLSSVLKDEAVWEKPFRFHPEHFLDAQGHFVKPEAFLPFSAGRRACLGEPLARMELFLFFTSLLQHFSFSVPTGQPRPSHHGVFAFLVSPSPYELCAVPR
# [5] = Volume of distribution at steady state in rat at 2 mg/kg, iv and 4 mg/kg, po; assay type: ADME, organism-based; conditions: in vivo, read-out: Vdss
# [6] = Clearance in rat at 2 mg/kg, iv and 4 mg/kg, po; assay type: ADME, organism-based; conditions: in vivo
# [7] = Cmax in rat at 2 mg/kg, iv and 4 mg/kg, po; assay type: ADME, organism-based; conditions: in vivo
# [8] = biological target: Kappa-type opioid receptor (Homo sapiens, UniProt P41145); assay: Agonist activity at kappa opioid receptor; assay type: functional
# Kappa-type opioid receptor, sequence (P41145 whole entry): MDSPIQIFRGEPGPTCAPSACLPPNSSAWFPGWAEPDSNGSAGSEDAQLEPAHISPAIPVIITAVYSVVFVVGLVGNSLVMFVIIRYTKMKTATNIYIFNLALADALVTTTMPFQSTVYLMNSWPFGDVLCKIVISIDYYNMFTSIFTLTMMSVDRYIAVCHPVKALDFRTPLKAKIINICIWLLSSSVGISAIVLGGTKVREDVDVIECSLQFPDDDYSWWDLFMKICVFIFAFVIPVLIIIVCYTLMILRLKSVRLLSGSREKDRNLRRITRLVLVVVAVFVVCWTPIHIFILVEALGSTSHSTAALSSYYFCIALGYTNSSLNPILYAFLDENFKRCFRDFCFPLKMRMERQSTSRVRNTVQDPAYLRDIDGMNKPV
# [9] = Binding affinity at batrachotoxinin sensitive Sodium channel in rat brain; assay type: tissue-based
# [10] = biological target: Cytochrome P450 3A4 (Homo sapiens, UniProt P08684)
# Cytochrome P450 3A4, sequence (P08684 whole entry): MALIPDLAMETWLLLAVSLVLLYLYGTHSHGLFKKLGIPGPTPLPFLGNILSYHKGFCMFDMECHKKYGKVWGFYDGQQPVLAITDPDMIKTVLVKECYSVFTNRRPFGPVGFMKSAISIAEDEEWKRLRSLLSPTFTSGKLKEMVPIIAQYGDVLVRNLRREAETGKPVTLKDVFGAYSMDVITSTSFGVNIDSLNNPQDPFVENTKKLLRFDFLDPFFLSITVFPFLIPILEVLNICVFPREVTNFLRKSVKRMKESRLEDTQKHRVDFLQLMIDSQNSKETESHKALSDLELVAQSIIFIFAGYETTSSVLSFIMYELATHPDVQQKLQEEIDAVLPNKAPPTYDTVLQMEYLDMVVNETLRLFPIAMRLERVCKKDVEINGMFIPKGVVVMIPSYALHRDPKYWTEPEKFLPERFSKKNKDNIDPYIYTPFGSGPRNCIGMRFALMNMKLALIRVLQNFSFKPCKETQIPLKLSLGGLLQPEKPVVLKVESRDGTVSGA
# [11] = biological target: T2, Urotensin-2 receptor (Rattus norvegicus) (UniProt P49684); assay: Binding affinity at Urotensin 2 receptor in rat aorta.
# T2 sequence (whole entry): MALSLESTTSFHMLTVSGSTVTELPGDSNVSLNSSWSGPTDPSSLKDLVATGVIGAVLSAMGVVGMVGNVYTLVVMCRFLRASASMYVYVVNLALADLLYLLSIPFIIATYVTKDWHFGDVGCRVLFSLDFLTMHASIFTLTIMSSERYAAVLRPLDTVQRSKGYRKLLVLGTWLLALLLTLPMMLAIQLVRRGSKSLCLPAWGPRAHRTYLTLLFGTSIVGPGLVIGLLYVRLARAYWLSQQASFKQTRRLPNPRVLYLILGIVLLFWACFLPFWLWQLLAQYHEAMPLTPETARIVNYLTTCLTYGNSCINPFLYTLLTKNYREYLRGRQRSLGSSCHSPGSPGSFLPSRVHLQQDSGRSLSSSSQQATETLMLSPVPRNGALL
SMILES,bioavailability [1] [%],half-life [2] [min],Ki [3] [nM],IC50 [4] [µM],Vd [5] [L/kg],clearance [6] [mL/min/kg],Cmax [7] [ng/mL],EC50 [8] [µM],Ki [9] [nM],IC50 [10] [nM],Kb [11] [nM]
COCCN(CC(=O)N1CCCC(c2ccccc2)C1CN1CCCC1)c1ccc(Cl)c(Cl)c1 (stereo not given),30,168,8,0.82,27,120,95,1,960,–,–
CN(CC(=O)N1CCCC(c2ccccc2)C1CN1CCCC1)c1ccc(Cl)c(Cl)c1 (racemic),0,228,16,0.75,23,97,100,3.2,2500,1400,28
O=C(Cn1c(=O)sc2ccc(Cl)cc21)N1CCCC(c2ccccc2)C1CN1CCOCC1 (racemic),< 1,300,6,8,26,130,160,7.9,3500,680,–
O=C(Cn1c(=O)sc2ccc(Cl)cc21)N1CCCC(c2ccccc2)C1CN1CCCC1 (racemic),–,–,1.2,1.7,–,–,–,1.3,330,1000,–
O=C1COc2cc(Cl)c(Cl)cc2N1CC(=O)N1CCCC(c2ccccc2)C1CN1CCCC1 (racemic),–,–,0.4,1.6,–,–,–,0.5,680,1800,–
Cc1cc2ncc(=O)n(CC(=O)N3CCCC(c4ccccc4)C3CN3CCOCC3)c2cc1C (racemic),–,–,5,6.7,–,–,–,30,6900,2700,–
O=C(Cn1c(=O)cnc2cc(Cl)c(Cl)cc21)N1CCCC(c2ccccc2)C1CN1CCOCC1 (racemic),–,–,3,21,–,–,–,15,18000,1000,–
O=C(Cn1c(=O)cnc2cc(Cl)c(Cl)cc21)N1CCCC(c2ccccc2)C1CN1CCCC1 (racemic),–,–,0.6,2.9,–,–,–,3.2,930,1200,–
O=C(Cn1c(=O)oc2ccc(Cl)cc21)N1CCCC(c2ccccc2)C1CN1CCCC1 (racemic),–,–,5,2.2,–,–,–,5,150,2100,–
Cc1cc2c(cc1C)N(CC(=O)N1CCCC(c3ccccc3)C1CN1CCCC1)C(=O)CO2 (racemic),–,–,0.4,5.1,–,–,–,5,390,3900,–
Cc1cc2ncc(=O)n(CC(=O)N3CCCC(c4ccccc4)C3CN3CCCC3)c2cc1C (racemic),–,–,1,8.4,–,–,–,6.3,1400,6800,–
N#CCN(CC(=O)N1CCCC(c2ccccc2)C1CN1CCCC1)c1ccc(Cl)c(Cl)c1 (racemic),12,192,2,2.3,27,100,120,0.79,1600,1100,5
N#CCN(CC(=O)N1CCCC(c2ccccc2)C1CN1CCOCC1)c1ccc(Cl)c(Cl)c1 (racemic),7,156,6,3.7,8,60,370,5,4000,490,–
O=C1COc2cc(Cl)c(Cl)cc2N1CC(=O)N1CCCC(c2ccccc2)C1CN1CCOCC1 (racemic),–,–,2,4.8,–,–,–,7.9,1300,730,–
CN(CC(=O)N1CCCC(c2ccccc2)C1CN1CCOCC1)c1ccc(Cl)c(Cl)c1 (racemic),–,–,79,2.3,–,–,–,1,1600,–,–
COCCN(CC(=O)N1CCCC(c2ccccc2)C1CN1CCOCC1)c1ccc(Cl)c(Cl)c1 (racemic),–,–,130,3.2,–,–,–,10,3200,480,–
O=C(Cn1c(=O)oc2ccc(Cl)cc21)N1CCCC(c2ccccc2)C1CN1CCOCC1 (racemic),–,–,40,3.5,–,–,–,1.3,730,1300,–
